Patent US6987101B1, “Therapeutic gestagens for the treatment of premenstrual dysphoric disorder” (Schering Aktiengesellschaft, priority 1996, dated 2006)

Tested on: premenstrual dysphoric disorder (PMDD) symptoms
Experiment: Oral treatment of women classified as PMDD patients over 4 to 6 cycles, re-evaluation of symptom criteria 1 to 11
Format: in vivo, fertile women
Settings: 3 mg drospirenone together with 30 μg ethinylestradiol orally daily, day 1 to day 21 of the cycle, then 7 pill-free or placebo days; evaluated after 4 to 6 cycles; all of the women treated
Excerpt: In the prospective evaluation by recording the symptoms of the patient over 2 or 3 menstrual cycles, 5 (or more) of the symptoms that are listed below occur during the last week of the luteal phase, but no longer occur postmenstrually. At least one of the symptoms must be the first, second, third or fourth symptom below. • 1. Noticeably stressed mental state, feelings of hopelessness or self-doubt • 2. Noticeable feeling of anxiety, tension, feeling of “being on the edge” • 3. Noticeable emotional tendencies (e.g., suddenly feeling sad or fretful or increased sensitivity to rejection) • 4. Lasting and noticeable feelings of unease or irritability or increased interpersonal conflicts • 5. Decreasing interest in conventional activities (e.g., work, school, friends, hobbies) • 6. Subjective sensation of concentration difficulties • 7. Lethargy, slight exhaustion or noticeable lack of energy • 8. Noticeable change in appetite, overeating or special food cravings • 9. […]
Fertile women, who were classified according to the above-indicated criteria 1. to 11. as PMDD patients, are treated orally over at least 4 cycles, in each case from day 1 to day 21 of the cycle daily, with an amount of 3 mg of drospirenone together with 30 μg of ethinylestradiol. […] After a treatment over 4 to 6 cycles, the symptoms that fall into the category criteria 1. to 11. are carefully evaluated again.

For `C[C@]12CCC(=O)C=C1[C@@H]1C[C@@H]1[C@H]1[C@@H]3[C@@H]4C[C@@H]4[C@@]4(CCC(=O)O4)[C@@]3(C)CC[C@@H]12` [drospirenone], the “improvement relative to at least one of the PMDD symptoms that occurred before the beginning of the treatment (not only the 11th symptom)” value was “significant improvement”.
